Like-named read-outs stand apart in the source and are kept apart here.
What was measured:
Format in all cases: biochemical
JAK1 = JAK1 (Homo sapiens (Human), UniProt P23458); experiment: JAK1 Inhibition Assay (Example B, Omnia kinase fluorescence peptide substrate assay)
Method in brief: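 Recombinant human JAK1 (12.5 nM) with 1 mM ATP and 8 μM Omnia Y12 Sox-peptide in 25 mM HEPES pH 7.4, 10 mM MgCl2, 0.01% Triton X-100, 1 mM DTT, 2% DMSO final. Phosphorylation read kinetically (ex 360/em 485 nm, 45 min); IC50 from 4-parameter fit of percent of control.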

Human Tyk2 kinase domain = Human Tyk2 kinase domain (Homo sapiens (Human), UniProt P29597); experiment: Tyk2 Inhibition Assay (Example A, Omnia kinase fluorescence peptide substrate assay); conditions: TYK2 Enzyme IC50 1 mM ATP, averaged IC50 ranges
Sequence of Human Tyk2 kinase domain (P29597 886-1187): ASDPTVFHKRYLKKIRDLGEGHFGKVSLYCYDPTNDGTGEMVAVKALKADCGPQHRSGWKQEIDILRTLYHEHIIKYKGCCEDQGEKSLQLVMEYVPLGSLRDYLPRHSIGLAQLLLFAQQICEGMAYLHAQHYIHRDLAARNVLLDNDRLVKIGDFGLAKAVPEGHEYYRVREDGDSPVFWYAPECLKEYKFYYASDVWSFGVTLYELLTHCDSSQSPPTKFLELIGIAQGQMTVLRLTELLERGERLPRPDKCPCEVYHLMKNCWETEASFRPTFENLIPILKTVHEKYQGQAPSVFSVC
Method in brief: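 Omnia Sox-peptide kinetic fluorescence assay (ex 360/em 485 nm, read every 50 s for 45 min) with 1 nM human Tyk2 kinase domain (aa 886–1187, His tag cleaved, baculovirus-expressed), 1 mM ATP, 8 μM Omnia Y12 peptide, in 25 mM HEPES pH 7.4, 10 mM MgCl2, 0.01% Triton X-100, 1 mM DTT, 2% DMSO. IC50 from 4-parameter logistic fit of percent of control.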

JAK3 = JAK3 (Homo sapiens (Human), UniProt P52333); experiment: JAK3 Inhibition Assay (Example D, Omnia kinase fluorescence peptide substrate assay)
Sequence of JAK3 (P52333 whole entry): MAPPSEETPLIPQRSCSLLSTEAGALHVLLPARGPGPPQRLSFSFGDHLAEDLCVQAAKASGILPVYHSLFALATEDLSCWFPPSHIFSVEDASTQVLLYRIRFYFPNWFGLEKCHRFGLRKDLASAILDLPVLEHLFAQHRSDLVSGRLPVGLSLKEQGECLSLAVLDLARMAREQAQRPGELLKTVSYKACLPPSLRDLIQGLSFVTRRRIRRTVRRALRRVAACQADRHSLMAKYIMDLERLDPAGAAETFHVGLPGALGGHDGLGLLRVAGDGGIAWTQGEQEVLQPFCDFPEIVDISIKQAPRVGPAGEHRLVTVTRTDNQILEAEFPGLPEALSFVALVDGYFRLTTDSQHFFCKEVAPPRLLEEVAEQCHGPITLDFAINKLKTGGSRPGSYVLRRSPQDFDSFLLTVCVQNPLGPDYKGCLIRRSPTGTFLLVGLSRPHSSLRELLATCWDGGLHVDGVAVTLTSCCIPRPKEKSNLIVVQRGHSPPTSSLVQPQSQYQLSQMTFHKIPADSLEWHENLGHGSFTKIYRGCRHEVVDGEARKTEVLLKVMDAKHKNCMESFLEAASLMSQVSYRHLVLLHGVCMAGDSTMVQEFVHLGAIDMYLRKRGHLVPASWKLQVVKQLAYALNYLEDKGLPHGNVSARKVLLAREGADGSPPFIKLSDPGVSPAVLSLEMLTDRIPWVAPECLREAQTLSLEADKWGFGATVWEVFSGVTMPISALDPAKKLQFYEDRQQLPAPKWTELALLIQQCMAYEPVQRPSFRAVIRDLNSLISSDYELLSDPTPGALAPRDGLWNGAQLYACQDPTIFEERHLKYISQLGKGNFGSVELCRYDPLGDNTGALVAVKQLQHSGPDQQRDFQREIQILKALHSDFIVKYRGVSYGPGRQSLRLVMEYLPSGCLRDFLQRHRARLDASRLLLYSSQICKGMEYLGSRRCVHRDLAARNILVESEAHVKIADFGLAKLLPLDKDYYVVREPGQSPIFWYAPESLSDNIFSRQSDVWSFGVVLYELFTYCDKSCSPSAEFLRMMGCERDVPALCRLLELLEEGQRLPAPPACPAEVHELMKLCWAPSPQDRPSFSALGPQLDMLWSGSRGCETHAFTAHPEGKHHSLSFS
Method in brief: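 Mixture held 2 nM JAK3, 1 mM ATP and 10 μM Omnia Y7 peptide in 25 mM HEPES pH 7.4, 10 mM MgCl2, 0.01% Triton X-100, 1 mM DTT, 2% DMSO final. Sox fluorescence (ex 360/em 485 nm) was read every 50 s for 45 min. IC50 came from a 4-parameter logistic fit of percent of control.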

JAK2 = JAK2 (Homo sapiens (Human), UniProt O60674); experiment: JAK2 Inhibition Assay (Example C, Omnia kinase fluorescence peptide substrate assay); conditions: JAK2 Enzyme IC50 1 mM ATP, averaged IC50 ranges
Sequence of JAK2 (O60674 whole entry): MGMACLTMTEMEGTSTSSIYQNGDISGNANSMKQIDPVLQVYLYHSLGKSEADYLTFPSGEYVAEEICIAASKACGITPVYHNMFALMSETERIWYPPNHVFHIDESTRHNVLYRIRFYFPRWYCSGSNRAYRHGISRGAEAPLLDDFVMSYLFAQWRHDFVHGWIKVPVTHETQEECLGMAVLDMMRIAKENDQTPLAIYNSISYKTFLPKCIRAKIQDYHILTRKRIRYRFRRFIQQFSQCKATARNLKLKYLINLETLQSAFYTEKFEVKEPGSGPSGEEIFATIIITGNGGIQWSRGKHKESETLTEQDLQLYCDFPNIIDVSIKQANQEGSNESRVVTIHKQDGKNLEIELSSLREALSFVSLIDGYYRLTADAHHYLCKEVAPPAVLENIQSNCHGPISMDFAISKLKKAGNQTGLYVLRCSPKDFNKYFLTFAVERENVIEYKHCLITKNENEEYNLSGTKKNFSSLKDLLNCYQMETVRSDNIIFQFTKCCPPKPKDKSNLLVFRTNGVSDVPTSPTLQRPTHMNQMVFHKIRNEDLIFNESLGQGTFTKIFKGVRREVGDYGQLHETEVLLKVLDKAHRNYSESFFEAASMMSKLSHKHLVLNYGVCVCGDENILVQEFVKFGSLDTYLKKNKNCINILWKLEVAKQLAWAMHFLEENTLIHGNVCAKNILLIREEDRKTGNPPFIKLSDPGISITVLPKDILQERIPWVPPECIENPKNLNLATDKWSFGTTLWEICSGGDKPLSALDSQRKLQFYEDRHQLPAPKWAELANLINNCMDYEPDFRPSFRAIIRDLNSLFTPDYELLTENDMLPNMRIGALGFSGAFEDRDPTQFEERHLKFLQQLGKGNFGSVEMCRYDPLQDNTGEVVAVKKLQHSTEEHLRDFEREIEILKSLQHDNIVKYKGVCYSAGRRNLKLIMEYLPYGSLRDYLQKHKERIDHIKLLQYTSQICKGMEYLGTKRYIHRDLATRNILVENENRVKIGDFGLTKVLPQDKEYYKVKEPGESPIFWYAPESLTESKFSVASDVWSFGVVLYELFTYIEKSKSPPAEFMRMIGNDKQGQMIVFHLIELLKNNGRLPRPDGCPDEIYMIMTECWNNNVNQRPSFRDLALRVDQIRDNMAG
Method in brief: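 4 nM JAK2 with 1 mM ATP and 10 μM Omnia Y7 peptide in 25 mM HEPES pH 7.4, 10 mM MgCl2, 0.01% Triton X-100, 1 mM DTT, 2% DMSO. Sox fluorescence (ex 360/em 485 nm) read every 50 s for 45 min; IC50 from 4-parameter fit of percent of control.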

[1] = JAK1 Enzyme IC50 1 mM ATP, 1 mM ATP, averaged IC50 ranges

Sequence of JAK1 (P23458 whole entry): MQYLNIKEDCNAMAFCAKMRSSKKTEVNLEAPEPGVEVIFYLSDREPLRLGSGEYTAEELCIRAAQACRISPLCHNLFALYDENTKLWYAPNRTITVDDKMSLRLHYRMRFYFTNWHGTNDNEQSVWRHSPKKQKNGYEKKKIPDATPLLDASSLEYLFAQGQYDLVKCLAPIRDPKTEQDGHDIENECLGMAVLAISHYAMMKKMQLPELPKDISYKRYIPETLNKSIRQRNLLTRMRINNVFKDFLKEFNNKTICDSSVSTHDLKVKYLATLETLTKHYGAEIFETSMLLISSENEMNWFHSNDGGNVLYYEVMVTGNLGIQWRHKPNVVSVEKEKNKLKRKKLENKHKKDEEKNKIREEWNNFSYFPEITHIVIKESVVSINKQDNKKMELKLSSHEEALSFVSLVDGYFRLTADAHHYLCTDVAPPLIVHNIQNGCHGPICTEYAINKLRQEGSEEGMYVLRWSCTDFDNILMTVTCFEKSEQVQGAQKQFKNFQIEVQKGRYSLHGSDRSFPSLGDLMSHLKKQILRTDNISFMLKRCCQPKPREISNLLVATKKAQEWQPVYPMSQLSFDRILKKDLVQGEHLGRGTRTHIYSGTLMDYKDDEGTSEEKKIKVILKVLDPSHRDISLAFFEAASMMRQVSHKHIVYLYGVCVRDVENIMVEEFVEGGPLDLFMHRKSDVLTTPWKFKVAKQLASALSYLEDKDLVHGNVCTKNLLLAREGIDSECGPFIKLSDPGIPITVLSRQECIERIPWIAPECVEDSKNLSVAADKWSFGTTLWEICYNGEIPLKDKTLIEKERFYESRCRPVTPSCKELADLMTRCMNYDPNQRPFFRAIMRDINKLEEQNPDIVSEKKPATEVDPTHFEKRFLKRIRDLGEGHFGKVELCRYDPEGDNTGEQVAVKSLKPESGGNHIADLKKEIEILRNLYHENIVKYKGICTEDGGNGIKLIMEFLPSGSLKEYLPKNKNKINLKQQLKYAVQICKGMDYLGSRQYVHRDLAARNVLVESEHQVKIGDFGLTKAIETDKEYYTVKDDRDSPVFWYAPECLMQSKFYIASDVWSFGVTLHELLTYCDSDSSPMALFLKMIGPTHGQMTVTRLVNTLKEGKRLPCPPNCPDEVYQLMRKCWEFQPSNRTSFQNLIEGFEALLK

| Compound | IC50 (JAK1; [1]) [nM] | IC50 (Human Tyk2 kinase domain) [nM] | IC50 (JAK3) [nM] | IC50 (JAK2) [nM] | IC50 (JAK1) [nM] |
| --- | --- | --- | --- | --- | --- |
| CCC(CC)n1cc(-c2nc(-c3cnn(CC[C@@H](O)CO)c3)cn3nccc23)cn1 [Example 64, (R)-4-(4-(4-(1-(pentan-3-yl)-1H-pyrazol-4-yl)pyrazolo[1,5-a]pyrazin-6-yl)-1H-pyrazol-1-yl)butane-1,2-diol] | 100 to 1000 | 10 to 100 | 1000 to 10000 | 10 to 100 | – |
| CC[C@H](n1cc(-c2nc(-c3cnn(C[C@@H](O)CO)c3)cn3nccc23)cn1)C(C)(F)F [Example 198, (R)-3-(4-(4-(1-((S)-2,2-difluoropentan-3-yl)-1H-pyrazol-4-yl)pyrazolo[1,5-a]pyrazin-6-yl)-1H-pyrazol-1-yl)propane-1,2-diol] | 1000 to 10000 | 100 to 1000 | 1000 to 10000 | 100 to 1000 | – |
| CCC(CC)n1cc(-c2nc(-c3cnn(C[C@@H](O)[C@@H](C)O)c3)cn3nccc23)cn1 [Example 59, (2R,3R)-1-(4-(4-(1-(pentan-3-yl)-1H-pyrazol-4-yl)pyrazolo[1,5-a]pyrazin-6-yl)-1H-pyrazol-l-yl)butane-2,3-diol] | 100 to 1000 | 10 to 100 | 1000 to 10000 | 10 to 100 | – |
| CCC(CC)n1cc(-c2nc(-c3cnn(CCN(C)S(C)(=O)=O)c3)cn3nccc23)cn1 [Example 9, N-methyl-N-(2-(4-(4-(1-(pentan-3-yl)-1H-pyrazol-4-yl)pyrazolo[1,5-a]pyrazin-6-yl)-1H-pyrazol-1-yl)ethyl)methanesulfonamide] | 100 to 1000 | 10 to 100 | 1000 to 10000 | 10 to 100 | – |
| Cn1cc(-c2cn3nccc3c(-c3cnn(C4CCCC4CO)c3)n2)cn1 (stereo not shown) [Example 51, (2-(4-(6-(1-methyl-1H-pyrazol-4-yl)pyrazolo[1,5-a]pyrazin-4-yl)-1H-pyrazol-1-yl)cyclopentyl)methanol] | – | 100 to 1000 | 1000 to 10000 | 1000 to 10000 | 1000 to 10000 |
| CCC[C@H](C)n1cc(-c2nc(-c3cnn(C(CO)CO)c3)cn3nccc23)cn1 [Example 82, (S)-2-(4-(4-(1-(pentan-2-yl)-1H-pyrazol-4-yl)pyrazolo[1,5-a]pyrazin-6-yl)-1H-pyrazol-1-yl)propane-1,3-diol] | – | 100 to 1000 | 1000 to 10000 | 10 to 100 | 100 to 1000 |
| CCC(CC)n1cc(-c2nc(-c3cnn(CC4CCS(=O)(=O)CC4)c3)cn3nccc23)cn1 [Example 11, 4-((4-(4-(1-(pentan-3-yl)-1H-pyrazol-4-yl)pyrazolo[1,5-a]pyrazin-6-yl)-1H-pyrazol-1-yl)methyl)tetrahydro-2H-thiopyran 1,1-dioxide] | – | 10 to 100 | 1000 to 10000 | 10 to 100 | 1000 to 10000 |
| CCC(CC)n1cc(-c2nc(-c3cnn(C[C@@H](O)CC)c3)cn3nccc23)cn1 [Example 114, (S)-1-(4-(4-(1-(pentan-3-yl)-1H-pyrazol-4-yl)pyrazolo[1,5-a]pyrazin-6-yl)-1H-pyrazol-1-yl)butan-2-ol] | – | 10 to 100 | 1000 to 10000 | 10 to 100 | 100 to 1000 |
| CCC(CC)n1cc(-c2nc(-c3cnn([C@H](C)[C@@H](O)CO)c3)cn3nccc23)cn1 (single isomer, unassigned) [Example 92] | – | 10 to 100 | 1000 to 10000 | 10 to 100 | 100 to 1000 |
| CC1CCCCCC1n1cc(-c2nc(-c3cnn(C)c3)cn3nccc23)cn1 (stereo not shown) [Example 52, 6-(1-methyl-1H-pyrazol-4-yl)-4-(1-(2-methylcycloheptyl)-1H-pyrazol-4-yl)pyrazolo[1,5-a]pyrazine] | – | 10 to 100 | 1000 to 10000 | 10 to 100 | 100 to 1000 |
| CCC(CC)n1cc(-c2nc(-c3cnn(C[C@@H]4CCC(=O)N4)c3)cn3nccc23)cn1 [Example 17, (S)-5-((4-(4-(1-(pentan-3-yl)-1H-pyrazol-4-yl)pyrazolo[1,5-a]pyrazin-6-yl)-1H-pyrazol-1-yl)methyl)pyrrolidin-2-one] | – | 10 to 100 | 1000 to 10000 | 10 to 100 | 100 to 1000 |
| CCC(CC)n1cc(-c2nc(-c3cnn(C[C@@H]4CNCCO4)c3)cn3nccc23)cn1 [Example 127, (S)-2-((4-(4-(1-(pentan-3-yl)-1H-pyrazol-4-yl)pyrazolo[1,5-a]pyrazin-6-yl)-1H-pyrazol-1-yl)methyl)morpholine trifluoroacetic acid] | – | 100 to 1000 | 1000 to 10000 | 100 to 1000 | 1000 to 10000 |
| CCC(CC)n1cc(-c2nc(-c3cnn(C[C@H](O)CN4CCCC4)c3)cn3nccc23)cn1 [Example 105, (R)-1-(4-(4-(1-(pentan-3-yl)-1H-pyrazol-4-yl)pyrazolo[1,5-a]pyrazin-6-yl)-1H-pyrazol-1-yl)-3-(pyrrolidin-1-yl)propan-2-ol] | 1000 to 10000 | 100 to 1000 | 1000 to 10000 | 100 to 1000 | – |
